Assay results published in patent US9986740B2, “Methods of identifying insect-TRPA1 modulators” (BRANDEIS UNIVERSITY, priority 2010, dated 2018).
Where a chain is given by its changes, count along the chain named. “Also recorded” adds a separate entry of the source. Like-named read-outs stand apart in the source and are kept apart here. Values belong to the compound of their own block, whether it stands above or below them.

Legend:
uninjected oocytes = experiment: Two-electrode voltage clamping on uninjected oocytes; format: cell-based, Xenopus laevis; conditions: 3 mM AITC, 1 mM CA, 0.1 mM NMM
Drosophila flies = experiment: Proboscis extension response (PER) behavioral assay; format: in vivo, Drosophila melanogaster; conditions: for Effect on PER in dTrpA1 loss-of-function mutants / Effect on PER in painless mutants / Effect on proboscis extension response (PER) / feeding: ingestion permitted; for Acceptance on first offering: first of five tastant offerings; for Effect on PER in painless mutants: painless mutant flies; for Effect on proboscis extension response (PER) / feeding: 350 mM sucrose with 2 mM AITC
dTRPA1 [1] = molecular target: T1, dTRPA1 (Drosophila melanogaster, UniProt Q7Z020); experiment: Two-electrode voltage clamping on Xenopus laevis oocytes expressing dTRPA1; format: cell-based
T1 sequence (Q7Z020 1-1197): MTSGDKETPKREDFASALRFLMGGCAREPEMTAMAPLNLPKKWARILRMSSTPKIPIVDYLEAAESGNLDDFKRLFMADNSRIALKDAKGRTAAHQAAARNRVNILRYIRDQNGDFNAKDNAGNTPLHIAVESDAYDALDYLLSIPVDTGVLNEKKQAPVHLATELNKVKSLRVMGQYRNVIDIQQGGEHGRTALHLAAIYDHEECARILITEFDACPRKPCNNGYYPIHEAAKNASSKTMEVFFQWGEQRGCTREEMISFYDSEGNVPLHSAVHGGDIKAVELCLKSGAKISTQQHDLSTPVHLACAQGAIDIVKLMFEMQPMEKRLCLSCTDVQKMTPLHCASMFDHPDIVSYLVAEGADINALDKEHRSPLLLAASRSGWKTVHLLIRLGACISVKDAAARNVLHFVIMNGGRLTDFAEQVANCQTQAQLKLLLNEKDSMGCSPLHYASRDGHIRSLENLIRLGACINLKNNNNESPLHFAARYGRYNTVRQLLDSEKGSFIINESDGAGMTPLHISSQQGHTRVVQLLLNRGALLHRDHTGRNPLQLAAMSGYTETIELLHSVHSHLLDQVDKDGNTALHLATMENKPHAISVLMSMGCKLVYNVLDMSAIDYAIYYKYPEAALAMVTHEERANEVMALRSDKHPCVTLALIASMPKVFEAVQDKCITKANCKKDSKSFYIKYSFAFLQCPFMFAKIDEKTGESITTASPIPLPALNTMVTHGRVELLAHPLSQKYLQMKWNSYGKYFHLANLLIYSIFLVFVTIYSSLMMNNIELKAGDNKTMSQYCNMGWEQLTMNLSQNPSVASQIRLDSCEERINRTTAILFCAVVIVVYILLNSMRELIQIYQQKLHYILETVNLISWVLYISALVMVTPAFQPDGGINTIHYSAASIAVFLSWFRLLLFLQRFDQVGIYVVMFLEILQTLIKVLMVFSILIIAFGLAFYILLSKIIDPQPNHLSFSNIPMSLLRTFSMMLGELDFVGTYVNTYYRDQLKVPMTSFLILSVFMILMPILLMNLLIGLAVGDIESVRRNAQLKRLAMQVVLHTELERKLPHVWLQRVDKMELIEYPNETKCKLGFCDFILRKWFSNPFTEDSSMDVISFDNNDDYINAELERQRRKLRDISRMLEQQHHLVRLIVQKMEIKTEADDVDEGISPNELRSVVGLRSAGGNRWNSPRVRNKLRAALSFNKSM

dTRPA1 [2] = molecular target: T1, dTRPA1; conditions: cited from earlier work
agTRPA1 = conditions: cited from earlier work
mammalian TRPA1s = conditions: conserved cysteine-independent; cited from earlier work
nematodes = conditions: in vivo; cited from earlier work
flies = conditions: in vivo; cited from earlier work
mammalian nociceptors = conditions: cited from earlier work
dTRPA1-2C = molecular target: T2, dTRPA1-2C (Drosophila melanogaster, UniProt Q7Z020, C650S/C670S); experiment: Two-electrode voltage clamping on oocytes expressing mutant dTRPA1-2C; format: cell-based; conditions: cysteines 650 and 670 mutated to serines; 0.1, 0.5, 1.0 mM AITC
T2 construct: expressed in transfected cells; host or cells: Xenopus laevis oocytes
T2 sequence (Q7Z020 1-1197 C650S/C670S): T1 sequence (Q7Z020 1-1197) with C650S, C670S
Description: Oocyte and larval physiology were performed largely as described in Hamada, et al., Nature 454, 217-220 (2008) and Pulver, et al., J Neurophysiol 101, 3075-3088 (2009), with additional details provided in below. Chemical sensitivities of wild type and mutant (dTRPA1-2C) channels were assessed by normalizing all currents to currents observed at 1 mM AITC.
Agonist-evoked dTRPA1 currents were recorded as previously described in (Hamada, et al., Nature 454, 217-220 (2008)), with the following modifications. Agonists of interest were added to the oocyte perfusion buffer (96 mM NaCl, 1 mM MgCl2, 4 mM KCl, and 5 mM HEPES, pH 7.6). Voltage was initially held at −60 mV, and a 300-ms voltage ramp (−60 mV to 60 mV) per sec was applied to dTRPA1- or AgTRPA1-expressing oocytes during perfusion of agonist-containing buffer. Typical oocyte resting membrane potentials were between −25 and −60 mV. […] EC50s for wild type dTRPA1 channels were obtained at −60 mV, with AITC provided for 60 sec with 30 sec intervals between increasing concentrations.
Substitutions of cysteine/lysine residues in dTrpA1 were made by swapping a region of wild type cDNA sequence including codons of cysteine or lysine with mutated cassettes. […]

[3] = wild type flies, 10 mM NMM or 6 mM CA
[4] = wild-type dTRPA1 in Xenopus oocytes

Compound: CN1C(=O)C=CC1=O [NMM, N-methyl-maleimide]
Response of uninjected oocytes (uninjected oocytes): did not respond
Effect on PER in dTrpA1 loss-of-function mutants (Drosophila flies): no reduction
Acceptance on first offering (Drosophila flies): usually accepted
Effect on ingestion in previously published ingestion-independent PER assay (Drosophila flies; ingestion-independent PER assay of Al-Anzi et al.): no effect
Effect on PER in painless mutants (Drosophila flies): significantly inhibited
Change of the compound's effect on PER upon dTRPA1 knockdown (Drosophila flies; tissue-specific dTRPA1 RNAi with Dll-Gal4, MJ94-Gal4 or Gr66a-Gal4, 10 mM NMM in 350 mM sucrose): robustly reduced
Effect on proboscis extension response (PER) / feeding (Drosophila flies; [3]): robustly inhibited

Compound: CC1(C)[C@H](C(=O)O[C@H](C#N)c2cccc(Oc3ccccc3)c2)[C@@H]1C=C(Br)Br [deltamethrin]
Activation of dTRPA1 (dTRPA1 [1]): failed to activate

Inhibition of agonist-elicited currents (dTRPA1 [1]; 100 μM ruthenium red applied): inhibited
Compound: N.N.N.N.N.N.N.N.N.N.N.N.N.N.[Cl-].[Cl-].[Cl-].[Cl-].[Cl-].[Cl-].[O-2].[O-2].[Ru+3].[Ru+3].[Ru+4] [ruthenium red]
Inhibition of warmth-activated dTRPA1 currents (dTRPA1 [2]): partially inhibits
Inhibition of warmth-activated agTRPA1 currents (agTRPA1): partially inhibits

Compound: Cn1c(=O)c2c(ncn2C)n(C)c1=O [caffeine]
Effect on PER in dTrpA1 loss-of-function mutants (Drosophila flies): inhibited
Effect on PER when only leg contact with food permitted (Drosophila flies; wild type flies, tastant contacts only legs, 350 mM sucrose with 100 mM caffeine, 2 mM AITC, 10 mM NMM or 6 mM CA): robustly inhibited

Activation of dTRPA1 (dTRPA1 [1]; [4]): failed to activate
Compound: CCN(CC)C(=O)c1cccc(C)c1 [DEET, N,N-diethyl-m-toluamide]

Compound: CN1CCCC1c1cccnc1 (centres unmarked) [nicotine]
Activity on mammalian TRPA1s (mammalian TRPA1s): agonists
Activation of dTRPA1 (dTRPA1 [1]): did not activate
Response of dTRPA1 expressing oocytes (dTRPA1 [1]): did not respond

Activation of dTRPA1 (dTRPA1 [1]; [4]): failed to activate
Compound: CCCCN(CCC(=O)OCC)C(C)=O [IR-3535]

Compound: COc1cc(CNC(=O)CCCC/C=C/C(C)C)ccc1O [capsaicin]
Acute response in nematodes (nematodes): no acute response
Acute response in flies (flies): no acute response
Effect on mammalian nociceptors (mammalian nociceptors): activates

Compound: 2-aminoethoxydiphenyl borate [2-APB]
Activity on mammalian TRPA1s (mammalian TRPA1s): agonists

Compound: C=CCN=C=S [AITC, allyl isothiocyanate]
Response of uninjected oocytes (uninjected oocytes): did not respond
Effect on PER in dTrpA1 loss-of-function mutants (Drosophila flies): no reduction
Acceptance on first offering (Drosophila flies): usually accepted
Effect on PER in painless mutants (Drosophila flies): significantly inhibited
Effect on proboscis extension response (PER) / feeding (Drosophila flies; [3]): dramatically inhibited
AITC sensitivity of dTRPA1-2C versus wild type (dTRPA1-2C): low sensitivity; also recorded: significantly decreased
Activation of dTRPA1 (dTRPA1 [1]): activated
